{
  "source": "patent US20040055025A1",
  "about": "“Immune response replication in cloned animals” (Infigen, Inc., priority 2002, published 2004)",
  "key": {"[1]": {"tested_on": "ear cells (SA01-FB) used as nuclear donors", "assay": "Nuclear transfer with lovastatin-treated ovine ear cells: in vitro embryo development", "assay_type": "cell-based, sheep", "details": "NT embryos from SA01-FB ear cells treated with 5 μM lovastatin for 24 hours; per day of NT", "experimental": "Oocytes were aspirated from sheep ovaries obtained from an abattoir and recovered in TL HEPES medium (Biowhittaker 04-616F) containing 10 mg/ml Heparin (Sigma H-3393) and 4 mg/ml BSA (Sigma A-6003). Aspirations were performed using 20 GA needles with the vacuum set at 60 mm Hg.\nTwo maturation media were used to produce nuclear transfer pregnancies. Maturation Medium 1: TC199 (Gibco 11150-059), 2 mM Glutamine (Sigma G-5763), 10% FBS (Hyclone A-111D), 5 mg/ml ovine FSH (Sigma L-8174), 5 mg/ml ovine LH (Sigma L-5269), 1 mg/ml Estradiol (Sigma E-2257), 0.3 mM Na-pyruvate (Sigma P-4562), and […] (Sigma M-9768). Maturation Medium 3: TC199 (Gibco 11150-059), 10% FBS (Hyclone A-111D), 10 mg/ml ovine FSH (Sigma L-8174), 10 mg/ml ovine LH (Sigma L-5269), 1 mg/ml Estradiol (Sigma E-2257) and […] (Sigma M-9768).\nTypically, oocytes were stripped of cumulus cells after 17 hours in maturation medium by vortexing in 0.5 ml of TL-HEPES. The chromatin was stained with Hoechst 33342 (5 mg/ml, Sigma) in TL-HEPES solution for 15 minutes. Oocytes were then enucleated in TL-HEPES with or without calcium.\nAll nuclear transfers were performed in TL HEPES containing calcium regardless of what enucleation medium was used. […]"}, "[2]": {"tested_on": "ear cells derived from a newborn cloned calf (C188/Firstdown-FB000)", "assay": "Nuclear transfer with lovastatin-treated bovine ear cells: in vitro embryo development", "assay_type": "cell-based", "details": "for Emb. Devel. (% Blastocyst): NT embryos from ear cells treated with lovastatin for 24 hours, day 7 of culture", "experimental": "Mycoplasma free totipotent cells used in the NT procedure, were prepared by cutting out a group of cells from the culture dish using a glass needle. The cells were then incubated in a TL HEPES solution containing from 1 to 3 mg/ml pronase E at approximately 32° C. for 15-60 minutes, the amount of time which was needed in this example to disaggregate the cells. Once the cells were in a single cell suspension they were used for NT within a 2-3 hour period.\nOocytes aspirated from ovaries were matured overnight (16 hours) in maturation medium. Medium 199 (Biowhittaker, Cat #12-119F) supplemented with luteinizing hormone 10 IU/ml (LH; Sigma, Cat #L9773), […] (Sigma, Cat #E8875) and 10% FCS or estrus cow serum, was used. Within 16-17 hours of maturation, the cumulus layer expanded and the first polar bodies were extruded.\nIn the first NT procedure, young oocytes (16-17 hours in maturation medium) were stripped of their cumulus cell layers and nuclear material stained with Hoechst 33342 5 mg/ml (Sigma, Cat #2261) in TL HEPES solution supplemented with cytochalasin B (7 μg/ml, Sigma, Cat #C6762) for 15 min. Oocytes were then enucleated in TL HEPES solution under mineral oil. A single cell of optimal size (12 to 15 μm) was then selected from a cell suspension and injected into the perivitelline space of the enucleated oocyte. The cell and oocyte membranes were then induced to fuse by electrofusion in a 500 μm chamber by application of an electrical pulse of 90V for 15 μs.\nCybrid activation was induced by a 4 min exposure to 5 μM calcium ionophore A23187 (Sigma Cat. #C-7522) or ionomycin Ca-salt in HECM (hamster embryo culture medium) containing 1 mg/ml BSA followed by a 1:1000 dilution in HECM containing 30 mg/ml BSA for 5 min. For HECM medium, See, e.g., Seshagiri & Barister, 1989, “Phosphate is required for inhibition of glucose of development of hamster eight-cell embryos in vitro,” Biol. Reprod. 40: 599-606. […]"}, "[3]": {"tested_on": "recipients", "assay": "Transfer of NT blastocysts from lovastatin-treated bovine cells into recipients: pregnancy outcome", "assay_type": "in vivo", "experimental": "After blastomere-oocyte fusion, the cybrids from second generation NT were cultured in CR2 media supplemented with BSA (3 mg/ml) under humidified air with 5% CO2 at 39° C. On the third day of culture, developing embryos were evaluated and cultured further until day seven in CR2 media containing 10% FCS. Morphologically good to fair quality embryos were non-surgically transferred into recipient females.\nSimilar results were obtained using statin-treated bovine cells in nuclear transfer procedures. […] One or two blastocysts were non-surgically transferred into 5 recipients of which two became pregnant (Table 3)."}, "[4]": {"tested_on": "estrus synchronized ewes", "assay": "Transfer of NT blastocysts from lovastatin-treated ovine cells into recipient ewes: pregnancy outcome"}},
  "note": "Entries after “also recorded” stand apart in the source; their conditions may differ.",
  "data": [
    {"compound": "CC[C@H](C)C(=O)O[C@H]1C[C@@H](C)C=C2C=C[C@H](C)[C@H](CC[C@@H]3C[C@@H](O)CC(=O)O3)[C@H]21", "note": "[lovastatin]", "values": [
      {"measurement": "# of Bl. (blastocysts, day 7)", "setting": "[1]", "result": "one and four"},
      {"measurement": "Emb. Devel. (% Blastocyst)", "setting": "[2]", "result": 19, "unit": "%"},
      {"measurement": "Emb. Devel. (% Blastocyst)", "setting": "[2]; listed as LOVASTATIN", "result": 19, "unit": "%"},
      {"measurement": "Number of blastocysts produced by day 7 of culture", "setting": "[2]; lovastatin treated cells used in NT on two different days", "result": 6},
      {"measurement": "Number of recipients that became pregnant", "setting": "[3]; of 5 recipients given one or two blastocysts", "result": "two"},
      {"measurement": "Outcome of pregnancies", "setting": "[3]; two pregnancies from lovastatin treated bovine cells", "result": "One pregnancy aborted by day 32; also recorded: produced a live calf"},
      {"measurement": "Status (of recipient after embryo transfer)", "setting": "[4]; NT blastocysts from lovastatin treated SA01-FB cells transferred into ewe, listed as L0", "result": "open and Lambed"},
      {"measurement": "Farrowed/Aborted", "setting": "[4]; Pregnancy Two, SA01-FB00 lovastatin treated, 4 Day 7 blastocysts transferred, recipient #56", "result": "farrowed"}
    ]}
  ]
}
